Laboratory results published in ChEMBL document CHEMBL3217616, “Modular assembly of cytotoxic acetogenin mimetics by click linkage with nitrogen functionalities” (Medchemcomm, 2011).

Tests used:
[1] = Cytotoxicity against human MDA-MB-435S cells after 48 hrs by CCK-8 assay; type: functional, cell-based
[2] = tested on: MCF7; test: Cytotoxicity against human MCF7 cells after 48 hrs by CCK-8 assay; type: functional, cell-based; conditions: MCF7, 48 h
[3] = Cytotoxicity against human NB4 cells assessed as growth inhibition at 0.2 uM after 48 hrs by CCK-8 assay; type: functional; conditions: NB-4, 48 h
[4] = tested on: SK-BR-3; test: Cytotoxicity against human SK-BR-3 cells after 48 hrs by CCK-8 assay; type: functional, cell-based; conditions: SK-BR-3, 48 h
[5] = tested on: U-937; test: Cytotoxicity against human U937 cells after 48 hrs by CCK-8 assay; type: functional, cell-based; conditions: U-937, 48 h
[6] = Cytotoxicity against human NB4 cells after 48 hrs by CCK-8 assay; type: functional, cell-based; conditions: NB-4, 48 h
[7] = tested on: Jurkat; test: Cytotoxicity against human Jurkat cells after 48 hrs by CCK-8 assay; type: functional, cell-based
[8] = tested on: BT-474; test: Cytotoxicity against human BT474 cells after 48 hrs by CCK-8 assay; type: functional, cell-based; conditions: BT-474, 48 h
[9] = tested on: BT-549; test: Cytotoxicity against human BT549 cells after 48 hrs by CCK-8 assay; type: functional, cell-based; conditions: BT-549, 48 h
[10] = tested on: HL-60; test: Cytotoxicity against human HL60 cells after 48 hrs by CCK-8 assay; type: functional, cell-based; conditions: HL-60, 48 h
[11] = tested on: SW-620; test: Cytotoxicity against human SW620 cells after 48 hrs by CCK-8 assay; type: functional, cell-based; conditions: SW-620, 48 h
[12] = tested on: K562; test: Cytotoxicity against human K562 cells after 48 hrs by CCK-8 assay; type: functional, cell-based; conditions: K562, 48 h
[13] = tested on: Kasumi 1; test: Cytotoxicity against human Kasumi-1 cells after 48 hrs by CCK-8 assay; type: functional, cell-based; conditions: Kasumi 1, 48 h
[14] = Cytotoxicity against human NB4 cells assessed as growth inhibition at 5 to 25 uM after 48 hrs by CCK-8 assay; type: functional, NB-4

CCCCCCCCCC[C@H](O)COCCOC[C@@H](O)CCCCCCCCCCCCC1=C[C@H](C)OC1=O
IC50 [1]: > 25 µM
IC50 [2]: > 25 µM
inhibition at 0.2 µM [3]: 48.6%
IC50 [4]: 22.1 µM
IC50 [5]: 1.2 µM
IC50 [6]: 0.7 µM
IC50 [7]: 2.6 µM
IC50 [8]: > 25 µM
IC50 [9]: 3.3 µM
IC50 [10]: > 25 µM
IC50 [11]: > 25 µM
IC50 [12]: 2.7 µM
IC50 [13]: 1.1 µM
inhibition (INH) [14]: >70%

CCCCCCCCCC[C@H](O)COCCOC[C@@H](O)CCC1CCN(CCCCCCCCCC2=C[C@H](C)OC2=O)CC1
IC50 [1]: 5 µM
IC50 [2]: > 25 µM
inhibition at 0.2 µM [3]: 6.2%
IC50 [4]: 8 µM
IC50 [5]: 4.4 µM
IC50 [6]: 1.9 µM
IC50 [7]: 1.2 µM
IC50 [8]: > 25 µM
IC50 [9]: 2.2 µM
IC50 [10]: > 25 µM
IC50 [11]: 8.1 µM
IC50 [12]: 3.1 µM
IC50 [13]: 3.9 µM
inhibition (INH) [14]: >70%

CCCCCCCCCC[C@H](O)COCCOC[C@@H](O)CC(=O)NCCCCCCCCCC1=C[C@H](C)OC1=O
IC50 [1]: > 25 µM
IC50 [2]: > 25 µM
IC50 [4]: > 25 µM
IC50 [5]: 5.2 µM
IC50 [6]: 4.5 µM
IC50 [7]: 14 µM
IC50 [8]: > 25 µM
IC50 [9]: > 25 µM
IC50 [10]: 7.4 µM
IC50 [11]: > 25 µM
IC50 [12]: 15 µM
IC50 [13]: 16.7 µM

CCCCCCCCCC[C@H](O)COCCOC[C@@H](O)Cc1cn(CCCCCCCCCC2=C[C@H](C)OC2=O)nn1
IC50 [1]: > 25 µM
IC50 [2]: > 25 µM
IC50 [4]: > 25 µM
IC50 [5]: > 25 µM
IC50 [6]: 3.2 µM
IC50 [7]: > 25 µM
IC50 [8]: > 25 µM
IC50 [9]: > 25 µM
IC50 [10]: > 25 µM
IC50 [11]: > 25 µM
IC50 [12]: 8.5 µM
IC50 [13]: 17.8 µM
